In the NIST ThermoML archive (doi:10.1021/je0301242):

Test: excess molar enthalpy (molar enthalpy of mixing); xn = mol fraction of the nth substance listed
Settings: 323.15 K, Liquid, Flow calorimetry

C=CC [propene] + COC
3000 kPa
Settings	excess molar enthalpy [kcal/mol]
x1 = 0.0427	0.00574
x1 = 0.0861	0.0112
x1 = 0.1301	0.0155
x1 = 0.1748	0.0201
x1 = 0.2203	0.0241
x1 = 0.2664	0.028
x1 = 0.3133	0.0306
x1 = 0.361	0.0332
x1 = 0.4095	0.0354
x1 = 0.4587	0.0368
x1 = 0.5088	0.0373
x1 = 0.5597	0.037
x1 = 0.6115	0.0363
x1 = 0.6641	0.0347
x1 = 0.7177	0.0318
x1 = 0.7722	0.0277
x1 = 0.8277	0.0222
x1 = 0.8841	0.016
x1 = 0.9415	0.00789

COC [dimethyl ether] + CCC
3060 kPa
Settings	excess molar enthalpy [kcal/mol]
x2 = 0.0397	0.022
x2 = 0.0803	0.0428
x2 = 0.1218	0.0629
x2 = 0.1643	0.0813
x2 = 0.2076	0.0978
x2 = 0.252	0.112
x2 = 0.2974	0.124
x2 = 0.3439	0.135
x2 = 0.3914	0.143
x2 = 0.4401	0.147
x2 = 0.49	0.15
x2 = 0.5411	0.149
x2 = 0.5935	0.145
x2 = 0.6472	0.137
x2 = 0.7023	0.126
x2 = 0.7587	0.109
x2 = 0.8167	0.088
x2 = 0.8762	0.0609
x2 = 0.9373	0.0299
